Calls of active or inactive are those of the source.
Assays:
[1] = biological target: T1, Fatty acid synthase (Homo sapiens, UniProt P49327); assay: FAS thioesterase domain inhibitors, dose response, biochemical, endpoint fluorescence intensity, uHTS hits (AID 624327); type: functional;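 further: fluorescence from hydrolysis of an O-methyl fluorescein acyl ester substrate by the enzyme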
[2] = biological target: T1, Fatty acid synthase; assay: FAS thioesterase domain inhibitors, dose response, biochemical, kinetic fluorescence intensity (AID 624326); type: functional;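 further: rate of fluorescence rise from hydrolysis of a fluorogenic O-methyl fluorescein ester substrate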
[3] = intracellular Trypanosoma cruzi inhibitors in host cells – cell-based, plate reader, cherry-pick samples, set 3, dose response (AID 651818); type: functional;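 further: compounds incubated with infected cells for about four days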
[4] = HEp-2 cell cytotoxicity, dose response, cytotoxicity control for RSV inhibitor project, HTS (AID 2410); type: functional; details: human respiratory syncytial virus
[5] = biological target: 26S proteasome non-ATPase regulatory subunit 14 (Homo sapiens, UniProt O00487); assay: inhibition of proteasome subunit RPN11 – biochemical, fluorescence polarization, uHTS hits, confirmation (AID 602368); type: functional
[6] = biological target: 72 kDa type IV collagenase (Homo sapiens, UniProt P08253); assay: Dose Response validation of uHTS RPN11 inhibitor hits using a MMP-2 Fluorescence assay.; type: functional
[7] = biological target: Prothrombin (Bos taurus, UniProt P00735); assay: thrombin inhibition, dose response, biochemical, fluorescence polarization, uHTS hits (AID 602369); type: functional
[8] = HeLa cell cytotoxicity, dose response, cytotoxicity control for MgcRacGAP inhibitor project (AID 624300); type: functional
[9] = biological target: T2, Rac GTPase-activating protein 1 (Homo sapiens, UniProt Q9H0H5); assay: MgcRacGAP GTPase-activating activity inhibitors, confirmation, biochemical, ADP Hunter fluorescence, primary and confirmatory (AID 624330); type: functional
T2 sequence (Q9H0H5 whole entry): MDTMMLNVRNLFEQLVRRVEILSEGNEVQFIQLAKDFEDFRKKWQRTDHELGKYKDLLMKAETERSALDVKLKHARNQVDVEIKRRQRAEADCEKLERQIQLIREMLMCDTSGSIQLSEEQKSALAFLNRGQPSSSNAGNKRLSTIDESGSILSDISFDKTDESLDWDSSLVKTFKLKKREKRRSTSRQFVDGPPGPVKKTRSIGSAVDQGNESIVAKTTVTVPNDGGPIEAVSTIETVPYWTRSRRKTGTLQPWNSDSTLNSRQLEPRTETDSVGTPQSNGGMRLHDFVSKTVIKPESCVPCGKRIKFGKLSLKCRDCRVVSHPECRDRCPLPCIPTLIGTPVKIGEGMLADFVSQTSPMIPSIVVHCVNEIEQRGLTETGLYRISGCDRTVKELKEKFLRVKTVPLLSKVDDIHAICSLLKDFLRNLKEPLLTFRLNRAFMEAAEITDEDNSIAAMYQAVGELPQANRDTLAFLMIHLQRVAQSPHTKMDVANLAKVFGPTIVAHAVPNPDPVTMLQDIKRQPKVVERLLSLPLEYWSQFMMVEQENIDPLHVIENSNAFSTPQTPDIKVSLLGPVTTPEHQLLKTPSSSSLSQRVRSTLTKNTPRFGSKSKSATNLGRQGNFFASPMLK

[10] = THP-1 cell cytotoxicity, dose response, cytotoxicity control for non-replicating M. tuberculosis project (AID 489025); type: functional
[11] = biological target: T3, Ubiquitin-conjugating enzyme E2 N (Homo sapiens, UniProt P61088); type: functional;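 further: Dose-response confirmation in a TR-FRET assay detecting UBC13-driven polyubiquitin chain formation, inhibition measured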
T3 sequence (P61088 whole entry): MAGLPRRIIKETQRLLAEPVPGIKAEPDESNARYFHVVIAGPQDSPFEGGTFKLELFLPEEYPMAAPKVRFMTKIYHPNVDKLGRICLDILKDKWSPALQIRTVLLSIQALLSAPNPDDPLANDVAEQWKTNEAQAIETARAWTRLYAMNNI

[12] = cells; type: functional
[13] = biological target: Protein Wnt-3a (Mus musculus, UniProt P27467); assay: Wnt3a-driven reporter signaling inhibition, dose response, selectivity assay for Gli-SUFU antagonist project, Wnt-LIGHT cells, luminescence (AID 651570); type: functional; details: read-out: IC50_Mean;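 further: Wnt-LIGHT reporter cells stimulated with conditioned medium from Wnt3a-producing cells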
[14] = biological target: Beta-galactosidase (Escherichia coli, UniProt Q8VNN2); assay: Dose response counterscreen for EBI2 assay utilizing the enzyme, b-galactosidase.; type: functional
[15] = biological target: T4, Corticotropin-releasing factor receptor 2/Corticotropin-releasing factor-binding protein (Homo sapiens, UniProt P24387+Q13324); assay: activators of CRF receptor 2 with binding protein – uHTS hits, confirmation (AID 602473); type: functional; details: read-out: EC50_Mean
T4 sequence (Q13324 whole entry): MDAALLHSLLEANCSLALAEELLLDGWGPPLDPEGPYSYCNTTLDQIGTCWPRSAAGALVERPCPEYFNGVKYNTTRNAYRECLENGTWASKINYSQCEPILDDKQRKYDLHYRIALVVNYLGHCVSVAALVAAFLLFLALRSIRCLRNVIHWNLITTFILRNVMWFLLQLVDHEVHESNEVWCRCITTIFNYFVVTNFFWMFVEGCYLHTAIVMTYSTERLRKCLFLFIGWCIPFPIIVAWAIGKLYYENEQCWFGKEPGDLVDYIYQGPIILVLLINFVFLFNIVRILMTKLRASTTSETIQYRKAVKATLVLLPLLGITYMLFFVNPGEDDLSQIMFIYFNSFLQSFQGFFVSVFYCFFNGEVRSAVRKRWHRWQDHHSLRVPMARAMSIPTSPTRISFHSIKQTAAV
T4 sequence (P24387 whole entry): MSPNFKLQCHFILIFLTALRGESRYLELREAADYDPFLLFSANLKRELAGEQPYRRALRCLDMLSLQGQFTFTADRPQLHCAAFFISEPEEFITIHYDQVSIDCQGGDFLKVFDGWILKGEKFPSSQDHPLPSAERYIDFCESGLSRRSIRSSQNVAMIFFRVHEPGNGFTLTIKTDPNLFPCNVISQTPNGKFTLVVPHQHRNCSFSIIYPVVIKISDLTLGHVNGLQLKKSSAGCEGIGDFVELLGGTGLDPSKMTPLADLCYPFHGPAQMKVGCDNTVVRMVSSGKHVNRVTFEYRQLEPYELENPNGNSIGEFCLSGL

[16] = Luminescence Cell-Based Dose Confirmation HTS to Identify Activators of 5'UTR Stem-Loop Driven Alpha-Synuclein mRNA Translation in H4 Neuroglioblastoma Cells. [Related pubchem assays: 1829 (Project Summary), 1814 (Primary HTS)]; type: functional
[17] = Luminescence Cell-Based Dose Response HTS to Identify Activators of Luciferase Translation or Activity in H4 […] Cells. [Related pubchem assays: 1829 (Project Summary), 1814 (Primary HTS)]; type: functional
[18] = tested on: H4; assay: Luminescence Cell-Based Dose Response HTS to Identify Activators of 5'UTR Stem-Loop Driven Prion Protein mRNA Translation in H4 Neuroglioblastoma Cells. [Related pubchem assays: 1829 (Project Summary), 1814 (Primary HTS)]; type: functional; details: Homo sapiens
[19] = microbe, parasite or virus in culture; type: functional; details: Mycobacterium tuberculosis
[20] = NIH-3T3 fibroblast cytotoxicity, dose response, cytotoxicity control, cell-based, fluorescence, Alamar Blue, secondary assay (AID 2327); type: functional;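 further: NIH-3T3 mouse fibroblasts cultured with fluconazole at 8 µg/mL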
[21] = inhibitors of firefly luciferase expression or activity, dose response, H4 neuroglioma cells, luminescence (AID 1990); type: functional, cell-based
[22] = insulin promoter down-regulators in MIN6 cells, imaging, high-content screening, mouse beta cells (AID 1628); type: functional
[23] = tested on: BJ; assay: cytotoxicity toward BJ-TERT fibroblasts, dose response, cell-based, RAS-independent, luminescence (AID 1933); type: functional; details: Homo sapiens
[24] = cells; type: functional, cell-based
[25] = Luminescence Cell-Based Dose Response HTS to Identify Inhibitors of 5'UTR Stem-Loop Driven Prion Protein mRNA Translation in H4 Neuroglioblastoma Cells. [Related pubchem assays: 1827 (Project Summary), 1813 (Primary HTS)]; type: functional
[26] = cytotoxicity in MIN6 insulinoma cells, dose response, cytotoxicity control, cell-based, mouse insulinoma (AID 2122); type: functional;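 further: confirmatory high-throughput counterscreen run to flag cytotoxic compounds; mouse MIN-6 beta cells carrying an insulin promoter eGFP reporter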
[27] = inhibitors of SNCA 5'UTR-driven reporter translation, confirmation, H4 neuroglioma cells, luminescence (AID 1988); type: functional, cell-based
[28] = tested on: BJ; assay: cells; type: functional, cell-based; details: Homo sapiens
[29] = C. albicans growth with fluconazole, confirmation, fluorescence, retest (AID 2467); type: functional, cell-based
[30] = inhibitors of intracellular T. cruzi replication, confirmation, NIH3T3 host cells, beta-gal luminescence (AID 2044); type: functional, cell-based;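 further: intracellular parasites grown in NIH/3T3 mouse fibroblasts as host cells; luminescent beta-galactosidase reporter signal from transgenic T. cruzi replicating inside host cells; inhibitors lower the luminescence signal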
[31] = cells; type: functional, cell-based; remark: listed apart in the source
[32] = cytotoxicity toward NIH3T3 fibroblasts, dose response, counter-screen, cell-based, ATP luminescence, mouse fibroblasts (AID 2010); type: functional;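 further: cells exposed to compound for about 90 hours before reading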
[33] = tested on: BJ; assay: cytotoxicity toward BJ-TERT-LT-ST fibroblasts, dose response, cell-based, RAS-independent, luminescence (AID 1935); type: functional; details: Homo sapiens;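 further: BJ fibroblasts immortalized with TERT plus LT and ST oncogenes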
[34] = cytotoxicity toward DRD oncogenic fibroblasts, dose response, cell-based, non-viral oncogenic, luminescence (AID 1934); type: functional; details: Homo sapiens
[35] = tested on: HEK293; assay: inhibitors of LMP1-driven NF-kB reporter, dose response, cell-based, HEK293, luciferase, cherry-pick (AID 588343); type: functional; details: Homo sapiens
[36] = tested on: INS1; assay: beta cell apoptosis inhibitors, cytokine rescue, dose response, luminescence, retest (AID 449756); type: functional, cell-based; details: Rattus norvegicus;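 further: cell death triggered by IL-1 beta plus TNF-alpha plus IFN-gamma mixture; protective hits raise ATP signal compared with cytokine alone wells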
[37] = biological target: Cytochrome P450 3A4 (Homo sapiens, UniProt P08684);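 further: CYP3A4 tested as one member of a cytochrome P450 panel screen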

26S proteasome non-ATPase regulatory subunit 14, sequence (O00487 whole entry): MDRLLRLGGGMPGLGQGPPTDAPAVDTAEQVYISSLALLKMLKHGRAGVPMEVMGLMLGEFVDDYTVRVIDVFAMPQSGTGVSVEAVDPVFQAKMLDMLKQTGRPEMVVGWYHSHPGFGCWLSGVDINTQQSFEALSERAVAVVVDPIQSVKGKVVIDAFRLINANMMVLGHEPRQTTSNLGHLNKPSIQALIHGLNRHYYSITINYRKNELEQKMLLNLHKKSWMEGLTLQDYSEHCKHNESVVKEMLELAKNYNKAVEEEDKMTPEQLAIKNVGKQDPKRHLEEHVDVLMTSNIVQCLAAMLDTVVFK
72 kDa type IV collagenase, sequence (P08253 whole entry): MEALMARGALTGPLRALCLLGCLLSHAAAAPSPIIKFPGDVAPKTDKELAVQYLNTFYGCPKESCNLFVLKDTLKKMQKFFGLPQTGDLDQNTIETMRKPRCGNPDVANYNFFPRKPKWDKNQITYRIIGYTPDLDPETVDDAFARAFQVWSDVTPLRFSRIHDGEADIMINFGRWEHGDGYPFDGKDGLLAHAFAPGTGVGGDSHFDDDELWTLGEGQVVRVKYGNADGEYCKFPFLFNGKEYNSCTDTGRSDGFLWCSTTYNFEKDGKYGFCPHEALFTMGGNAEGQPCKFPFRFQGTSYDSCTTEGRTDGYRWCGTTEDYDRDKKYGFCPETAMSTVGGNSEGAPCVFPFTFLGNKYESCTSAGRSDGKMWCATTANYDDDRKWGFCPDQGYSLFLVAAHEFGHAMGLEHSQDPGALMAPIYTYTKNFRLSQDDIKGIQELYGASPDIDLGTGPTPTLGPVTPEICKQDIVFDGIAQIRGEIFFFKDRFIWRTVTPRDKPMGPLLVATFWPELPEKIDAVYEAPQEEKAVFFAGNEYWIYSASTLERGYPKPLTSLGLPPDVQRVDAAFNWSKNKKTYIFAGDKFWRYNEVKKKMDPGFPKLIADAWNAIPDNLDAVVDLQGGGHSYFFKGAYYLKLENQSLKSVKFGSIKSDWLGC
T1 sequence (P49327 whole entry, the tested form may be a part): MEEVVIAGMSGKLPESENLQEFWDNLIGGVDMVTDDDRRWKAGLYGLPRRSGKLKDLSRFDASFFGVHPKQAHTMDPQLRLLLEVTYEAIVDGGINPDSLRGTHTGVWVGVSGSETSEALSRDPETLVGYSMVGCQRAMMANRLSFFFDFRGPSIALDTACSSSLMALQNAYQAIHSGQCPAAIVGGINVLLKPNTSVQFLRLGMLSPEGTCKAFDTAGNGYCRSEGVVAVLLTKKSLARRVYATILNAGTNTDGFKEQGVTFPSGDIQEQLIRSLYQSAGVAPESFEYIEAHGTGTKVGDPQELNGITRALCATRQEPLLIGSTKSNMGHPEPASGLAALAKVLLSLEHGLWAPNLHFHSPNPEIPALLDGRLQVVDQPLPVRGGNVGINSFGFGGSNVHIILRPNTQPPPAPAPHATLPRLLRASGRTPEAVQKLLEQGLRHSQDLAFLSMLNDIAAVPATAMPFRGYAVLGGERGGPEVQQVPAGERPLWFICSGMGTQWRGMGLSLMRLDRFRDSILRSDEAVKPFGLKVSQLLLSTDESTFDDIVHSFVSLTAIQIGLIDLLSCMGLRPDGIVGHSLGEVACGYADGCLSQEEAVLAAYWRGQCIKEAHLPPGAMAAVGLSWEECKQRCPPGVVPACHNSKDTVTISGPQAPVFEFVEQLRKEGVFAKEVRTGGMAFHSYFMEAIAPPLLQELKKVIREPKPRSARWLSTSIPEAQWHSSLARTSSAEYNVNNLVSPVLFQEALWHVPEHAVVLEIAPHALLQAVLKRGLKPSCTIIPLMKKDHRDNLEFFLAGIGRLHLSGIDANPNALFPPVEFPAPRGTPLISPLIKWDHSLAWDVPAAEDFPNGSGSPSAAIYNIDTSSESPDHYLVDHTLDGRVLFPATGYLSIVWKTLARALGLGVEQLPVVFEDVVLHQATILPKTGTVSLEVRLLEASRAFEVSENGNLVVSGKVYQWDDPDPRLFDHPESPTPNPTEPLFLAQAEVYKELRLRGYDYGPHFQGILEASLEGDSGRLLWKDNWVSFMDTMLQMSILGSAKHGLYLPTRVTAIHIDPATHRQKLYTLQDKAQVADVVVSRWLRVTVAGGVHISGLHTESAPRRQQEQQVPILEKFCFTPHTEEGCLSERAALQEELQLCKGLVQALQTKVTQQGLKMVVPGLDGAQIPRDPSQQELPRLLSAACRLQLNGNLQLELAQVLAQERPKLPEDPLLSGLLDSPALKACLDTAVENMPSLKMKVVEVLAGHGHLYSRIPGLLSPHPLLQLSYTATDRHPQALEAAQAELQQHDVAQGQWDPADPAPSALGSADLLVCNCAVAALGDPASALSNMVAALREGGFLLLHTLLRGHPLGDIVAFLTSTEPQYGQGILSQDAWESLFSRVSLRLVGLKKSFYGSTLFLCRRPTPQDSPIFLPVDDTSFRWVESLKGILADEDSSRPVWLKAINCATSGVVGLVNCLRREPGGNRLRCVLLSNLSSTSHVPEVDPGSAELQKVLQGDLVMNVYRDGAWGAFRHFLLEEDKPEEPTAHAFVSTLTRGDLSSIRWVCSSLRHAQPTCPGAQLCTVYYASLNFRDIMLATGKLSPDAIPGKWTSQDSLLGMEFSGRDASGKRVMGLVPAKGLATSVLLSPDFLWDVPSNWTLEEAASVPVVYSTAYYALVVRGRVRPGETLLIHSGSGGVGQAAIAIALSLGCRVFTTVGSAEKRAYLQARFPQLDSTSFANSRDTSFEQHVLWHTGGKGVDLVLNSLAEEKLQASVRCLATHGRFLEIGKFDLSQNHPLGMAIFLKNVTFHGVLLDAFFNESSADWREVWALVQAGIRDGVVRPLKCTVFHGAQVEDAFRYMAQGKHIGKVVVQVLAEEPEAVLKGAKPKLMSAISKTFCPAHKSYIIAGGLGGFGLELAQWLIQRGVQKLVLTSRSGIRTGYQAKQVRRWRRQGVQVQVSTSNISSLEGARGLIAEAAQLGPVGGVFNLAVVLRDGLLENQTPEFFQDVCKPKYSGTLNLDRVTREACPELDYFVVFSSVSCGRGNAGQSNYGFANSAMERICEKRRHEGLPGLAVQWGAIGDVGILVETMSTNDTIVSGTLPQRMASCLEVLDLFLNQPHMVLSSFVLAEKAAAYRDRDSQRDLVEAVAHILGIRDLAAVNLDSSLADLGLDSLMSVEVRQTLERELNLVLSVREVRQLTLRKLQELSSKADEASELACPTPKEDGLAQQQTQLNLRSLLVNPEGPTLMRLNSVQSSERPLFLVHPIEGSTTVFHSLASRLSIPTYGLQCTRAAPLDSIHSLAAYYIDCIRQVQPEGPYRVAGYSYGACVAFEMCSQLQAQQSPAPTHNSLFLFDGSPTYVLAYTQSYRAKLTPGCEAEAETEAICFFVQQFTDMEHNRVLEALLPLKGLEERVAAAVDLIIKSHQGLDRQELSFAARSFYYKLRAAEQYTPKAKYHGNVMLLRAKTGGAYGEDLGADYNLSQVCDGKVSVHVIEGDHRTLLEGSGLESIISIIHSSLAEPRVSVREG
Beta-galactosidase, sequence (Q8VNN2 whole entry): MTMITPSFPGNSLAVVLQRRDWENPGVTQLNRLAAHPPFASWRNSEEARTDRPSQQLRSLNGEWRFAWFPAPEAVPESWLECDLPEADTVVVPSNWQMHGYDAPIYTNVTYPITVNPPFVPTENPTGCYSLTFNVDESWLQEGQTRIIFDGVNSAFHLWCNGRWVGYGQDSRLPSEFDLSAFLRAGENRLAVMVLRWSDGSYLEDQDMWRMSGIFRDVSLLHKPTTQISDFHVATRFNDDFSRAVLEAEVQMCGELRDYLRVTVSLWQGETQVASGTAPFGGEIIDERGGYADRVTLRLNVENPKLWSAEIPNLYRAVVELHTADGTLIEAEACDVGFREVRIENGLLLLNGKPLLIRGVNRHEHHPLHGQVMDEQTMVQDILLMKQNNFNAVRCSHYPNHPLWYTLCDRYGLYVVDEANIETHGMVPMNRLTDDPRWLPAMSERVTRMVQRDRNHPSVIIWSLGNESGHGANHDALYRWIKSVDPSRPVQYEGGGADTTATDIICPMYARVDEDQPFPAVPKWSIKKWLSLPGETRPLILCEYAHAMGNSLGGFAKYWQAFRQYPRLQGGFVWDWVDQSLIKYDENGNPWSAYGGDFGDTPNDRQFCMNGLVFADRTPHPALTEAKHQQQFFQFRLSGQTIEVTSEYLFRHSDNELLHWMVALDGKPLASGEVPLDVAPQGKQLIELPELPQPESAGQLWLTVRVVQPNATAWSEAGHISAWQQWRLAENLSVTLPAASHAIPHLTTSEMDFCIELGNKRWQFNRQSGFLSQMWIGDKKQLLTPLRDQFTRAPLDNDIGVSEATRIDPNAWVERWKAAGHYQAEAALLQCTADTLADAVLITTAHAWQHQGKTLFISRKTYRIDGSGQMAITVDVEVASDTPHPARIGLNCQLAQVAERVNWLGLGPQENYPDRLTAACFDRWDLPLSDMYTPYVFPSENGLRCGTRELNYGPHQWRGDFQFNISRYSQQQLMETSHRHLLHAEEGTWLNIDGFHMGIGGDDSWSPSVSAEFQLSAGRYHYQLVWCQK
Protein Wnt-3a, sequence (P27467 whole entry): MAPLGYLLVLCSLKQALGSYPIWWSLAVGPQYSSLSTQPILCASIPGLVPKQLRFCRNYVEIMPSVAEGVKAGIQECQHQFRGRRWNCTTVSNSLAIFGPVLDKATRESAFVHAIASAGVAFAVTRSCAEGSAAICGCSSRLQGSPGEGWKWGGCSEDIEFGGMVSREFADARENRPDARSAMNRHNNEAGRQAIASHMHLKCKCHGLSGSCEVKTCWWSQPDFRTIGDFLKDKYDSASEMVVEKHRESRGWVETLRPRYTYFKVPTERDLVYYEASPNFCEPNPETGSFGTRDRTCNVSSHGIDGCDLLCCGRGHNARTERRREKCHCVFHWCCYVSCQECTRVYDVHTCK

SMILES: COc1ccc(-c2nn(CCC#N)cc2C(=O)Nc2ccc(C(C)=O)cc2)cc1[N+](=O)[O-]
- IC50 [1]: 1.41 µM (active)
- IC50 [2]: 4.1 µM (active)

SMILES: C[C@@H]1CN([C@@H](C)CO)C(=O)c2cc(NS(=O)(=O)c3ccc(Cl)cc3)ccc2O[C@@H]1CN(C)Cc1ccc(-c2ccccc2)cc1
- AC50 [3]: 3.31 µM (active)

SMILES: Cc1ccc(C2CC(c3cccs3)=NN2S(=O)(=O)c2ccc(C)cc2)cc1 (configuration not stated)
- CC50 [4]: > 50 µM (active)
- IC50 [5]: 43.4 µM (active)
- IC50 [6]: > 100 µM (inactive)
- IC50 [7]: 55.9 µM (active)

SMILES: Cc1c(C(=O)N/N=C/c2ccc(O)c(Br)c2)sc(N)c1C#N
- IC50 [5]: 49.8 µM (active)
- IC50 [6]: > 100 µM (inactive)
- IC50 [7]: 48.9 µM (active)
- CC50 [8]: 78.2 µM (active)
- IC50 [9]: 97.3 µM (active)

SMILES: CCC(C)[C@H]1CN=C(N)N1CCc1cccc2ccccc12 (some centres not stated)
- CC50 [10]: 15.8 µM (active)
- IC50 [11]: > 20 µM (inactive)
- IC50 [12]: 22.5 µM (active)
- IC50 [13]: 6.06 µM (active)

SMILES: O=C(/C=C/c1ccccc1)N1CCN(c2cccc(Cl)n2)CC1
- IC50 [14]: > 80 µM (inactive)

SMILES: CN(CCOc1ccccc1)CC(=O)Nc1ccc([N+](=O)[O-])cc1Cl
- IC50 [1]: 9.54 µM (active)
- IC50 [2]: 12.7 µM (active)

SMILES: O=C(CSc1ccc([N+](=O)[O-])cn1)Nc1ccc2c(c1)OCCO2
- IC50 [1]: 1.51 µM (active)
- IC50 [2]: 4.17 µM (active)

SMILES: O=C(c1cc(COc2cccc(C(F)(F)F)c2)on1)N1C[C@@H]2CCC[C@H]1C2
- IC50 [1]: 12.4 µM (active)
- IC50 [2]: 10.7 µM (active)

SMILES: CCOc1cc(/C=C2\C(=N)N3N=C(CC(=O)N4CCCCC4)SC3=NC2=O)ccc1O
- IC50 [5]: 37.6 µM (active)
- EC50 [15]: 6.32 µM (active)
- IC50 [6]: > 100 µM (inactive)
- IC50 [7]: 33.4 µM (active)

SMILES: C[C@@H]1CCCCO[C@@H](CN(C)Cc2ccc(Cl)c(Cl)c2)[C@@H](C)CN([C@H](C)CO)C(=O)c2cc(NC(=O)C3CCCCC3)ccc2O1
- AC50 [3]: 2.9 µM (active)

SMILES: C[C@@H]1CN([C@H](C)CO)C(=O)c2cc(NC(=O)Nc3ccc(C(F)(F)F)cc3)ccc2O[C@H]1CN(C)S(=O)(=O)c1ccccc1
- AC50 [3]: 7.36 µM (active)

SMILES: C[C@H]1CN([C@@H](C)CO)C(=O)c2cc(NC(=O)Cc3cn(C)c4ccccc34)ccc2O[C@H]1CN(C)Cc1ccc(-c2ccccc2)cc1
- AC50 [3]: 3.27 µM (active)

SMILES: Nc1c(-c2cccc(Cl)c2)cnn1-c1cccc([N+](=O)[O-])c1
- IC50 [1]: 11 µM (active)
- IC50 [2]: 12 µM (active)

SMILES: C(=N\NC1=Nc2cccc3cccc1c23)/c1cccnc1
- EC50 [16]: 0.128 µM (active)
- EC50 [17]: 2.39 µM (active)
- EC50 [18]: > 120 µM (not active)
- CC50 [19]: > 40 µM (active)
- IC50 [5]: 11.9 µM (active)
- IC50 [6]: > 100 µM (inactive)
- IC50 [7]: 14 µM (active)

SMILES: COc1ccc(O)c(/C=N/NC(=O)c2ccc(OCc3cccc(Br)c3)cc2)c1
- EC50 [20]: 17.5 µM (inconclusive)
- EC50 [21]: 0.239 µM (active)
- IC50 [22]: 3.56 µM (active)
- EC50 [23]: 9.05 µM (active)
- EC50 [24]: > 350 µM (not active)
- EC50 [25]: 6.79 µM (active)
- IC50 [26]: 2.84 µM (active)
- EC50 [27]: 2.97 µM (active)
- EC50 [28]: 110 µM (active)
- EC50 [29]: > 38 µM (not active)
- EC50 [30]: 0.77 µM (active)
- EC50 [31]: > 350 µM (not active)
- EC50 [32]: 7.23 µM (active)
- EC50 [33]: 20.1 µM (active)
- EC50 [34]: 16.3 µM (active)
- AC50 [35]: 3.86 µM (active)
- AC50 [36]: 2.61 µM (active)
- IC50 [5]: 37.9 µM (active)
- IC50 [6]: > 100 µM (inactive)
- IC50 [7]: 68.3 µM (active)
- AC50 [37]: 7.08 µM (inconclusive)

SMILES: CCc1ccc2oc(C(=O)N3CCN(c4ccccc4OC)CC3)cc(=O)c2c1
- IC50 [14]: > 80 µM (inactive)

SMILES: COc1ccc(/C=C(\C#N)C(=O)Nc2cc(S(=O)(=O)N3CCOCC3)ccc2N2CCCC2)cc1
- IC50 [14]: > 80 µM (inactive)

— ChEMBL document CHEMBL1201862, “PubChem BioAssay data set” (2004)
